Measured values published in patent publication US9814714B2, “Kinase modulation, and indications therefor” (Plexxikon Inc., priority 2015, dated 2017).
Like-named read-outs stand apart in the source and are kept apart here.

Experiments:
[1] = tested on: pERK in A375 cells (BRAF^V600E, homozygous); assay: Phospho-ERK AlphaScreen assay, pERK inhibition in A375; assay type: cell-based; details: Homo sapiens, A-375, 1 h, read-out: pERK inhibition IC50 A375
Procedure: (§1) Phospho-ERK AlphaScreen® assay: The degree of ERK phosphorylation was determined using an AlphaScreen® assay where an increase in ERK1/2 phosphorylation at Thr202/Tyr204 brought the donor and acceptor AlphaScreen® beads into close proximity, generating a signal for quantification. To determine the effects of compound treatment on phosphorylation of ERK1/2, cells were plated in a 96-well plate and treated with an 8-point titration of compound for one hour at 37° C. before lysis. To detect pERK, cell lysates were incubated with streptavidin-coated AlphaScreen® donor beads, anti-mouse IgG AlphaScreen® acceptor beads, a biotinylated anti-ERK1/2 rabbit antibody, and a mouse antibody that recognizes ERK1/2 only when it is phosphorylated on Thr202 and Tyr204. The biotinylated ERK1/2 antibody binds to both the streptavidin-coated AlphaScreen® donor beads and to ERK1/2 (regardless of its phosphorylation state), and the phospho-ERK1/2 antibody binds to the acceptor beads and to ERK1/2 that is phosphorylated at Thr202/Tyr204. An increase in ERK1/2 phosphorylation at Thr202/Tyr204 brings the donor and acceptor AlphaScreen® beads into close proximity, generating a signal that can be quantified on an EnVision reader (Perkin Elmer).
(§2) Using AlphaScreen® technology, the ability of Formula I to affect the phosphorylation of ERK and MEK in the cells was measured quantitatively. Following treatment with compound, the cells were lysed, and a sample of the lysate was transferred to an assay plate. The lysate was mixed with antibodies directed against total ERK/MEK, antibodies that recognize specific phosphorylation sites on ERK/MEK, AlphaScreen® anti-mouse IgG Acceptor beads, and Streptavidin Donor beads. Upon excitation of the donor beads with laser light at 680 nm, singlet oxygen was produced. This singlet oxygen was rapidly quenched, unless the AlphaScreen® Acceptor beads were in close proximity, in which case a proximity signal can be measured at 580 nm. In the presence of phosphorylated ERK/MEK, there is a very strong proximity signal.
(§3) 1. One day before the assay, 50,000 cells were plated in each well of a 96-well tissue-culture-treated plate (Corning #3610) in a 50 μL volume. Cells were incubated at 37° C. overnight.
(§4) 2. Compounds were diluted in DMSO to 500× final concentration. Each compound was plated as an 8-point titration, using 1:3 dilutions in DMSO. The maximum concentration was about 5 mM.
(§5) 3. 1 μl of compound was added to each well of a 96-well polypropylene plate (Corning #3363). For A375, COLO829, SK-MEL-3, HCT116, and HT-29, the high control was DMSO, and the low control was 10 μM PLX4720 (CAS No. 918505-84-7). For B9 and IPC-298, the high control was 3.33 μM PLX4720, and the low control was DMSO. 4. 249 μL growth media was added to compounds, diluting them 250-fold. 5. […] The compound was incubated with the cells at 37° C. for one hour. 6. The media was aspirated, and the cells were lysed in 50 μL of ice-cold 1× Cell Lysis buffer. The plates were incubated on ice for 5 minutes to allow complete lysis of the cells. 7. A mixture of biotinylated donor antibody, acceptor antibody, and anti-mouse IgG AlphaScreen® acceptor beads in 1× AlphaLISA immunoassay buffer was prepared. 8. 5 μL of lysate was transferred to a 384-well assay plate (Perkin Elmer #6005359). 5 μL of the antibody and acceptor bead mixture was added. The plates were spinned.

[2] = tested on: COLO205 cells; assay: Growth inhibition assay (CellTiter-Glo), COLO205; assay type: cell-based; details: Homo sapiens
Procedure: Cells were incubated overnight at 37° C.
2. […] The maximum concentration was about 5 mM.

[3] = tested on: pERK in B9 cells (HRAS^Q61L); assay: Phospho-ERK AlphaScreen assay, pERK activation in B9; assay type: cell-based, murine; details: Mus musculus
Procedure: as §1, §2, §3, §4, §5

[4] = tested on: A375 cells; assay: Growth inhibition assay (CellTiter-Glo), A375; assay type: cell-based; details: Homo sapiens
Procedure: Growth inhibition assay: Cells were plated into a 96-well plate at a density of 3000 cells per well and allowed to adhere overnight. Compounds were dissolved in DMSO, diluted 3-fold to create an 8-point titration and added to cells. After a 72-hour incubation, cell viability was examined using CellTiter-Glo® (Promega).
In order to determine the effects of Formula I on proliferation, a growth assay was established using melanoma cells (A375 and COLO829) and colorectal carcinoma cells (COLO205, HT-29) which each express the BRAFV600E mutation. To show selectivity over wild-type BRAF, several BRAF wild-type cell lines (K562, NOMO-1, MV-4-11 and ML-2) were also examined in the growth assay. The growth assay implemented the Promega CellTiter-Glo Luminescent Cell viability assay, which gives a luminescent readout that is proportional to the amount of ATP present in a cell sample. As ATP levels directly correlate with the number of viable cells, the luminescent signal can be used to determine the potency of Formula I to block the proliferation of the cell lines of interest.
1. 3,000 cells were plated in each well for cell lines A375, COLO205, COLO829, HT-29, and SK-MEL-3. 25,000 cells were plated in each well for cell lines K562, ML-2, MV-4-11, and
NOMO-1 of a 96-well tissue-culture-treated plate (Corning #3610) in a 50 μL volume. Cells were incubated overnight at 37° C.
2. Each test compound was plated as an 8-point titration, using 1:3 dilutions in DMSO. The maximum concentration was about 5 mM. Dilute DMSO and test compound of Formula I 1:250 in growth media.
3. 50 μL of the diluted compound was transferred into 50 μL cells, for a 500-fold final compound dilution (maximum concentration is typically 10 μM and DMSO concentration is 0.2%). The cells were incubated with DMSO/compound for 3 days at 37° C. in 5% CO2.
4. Cell Titer-Glo Luminescent Assay Reagent was brought to room temperature and reconstituted as directed in the product manual. The cell cultures were also brought to room temperature for about 20-30 minutes. […] Luminescence was measured on a Tecan Safire plate reader. […]

[5] = tested on: pERK in IPC-298 cells (NRAS^Q61L); assay: Phospho-ERK AlphaScreen assay, pERK activation in IPC-298; assay type: cell-based, human; details: for EC50: Homo sapiens
Procedure: as §1, §2, §3, §4, §5

[6] = A375, BRAF^V600E homozygous, one hour treatment
[7] = COLO 205, 72-hour incubation, read-out: In vitro growth inhibition IC50, COLO205
[8] = B9, HRAS^Q61L, concentration increasing pERK to 50% compared to positive control 10 μM PLX4720, read-out: pERK activation EC50 B9
[9] = A-375, 72-hour incubation, read-out: In vitro growth inhibition IC50, A375
[10] = IPC-298, NRAS^Q61L, concentration increasing pERK to 50% compared to positive control 10 μM PLX4720, read-out: pERK activation EC50 IPC298
[11] = read-out: pERK activation Mean EC50, B9
[12] = IPC-298, read-out: pERK activation Mean EC50, IPC-298

Row | IC50 [1, 6] [nM] | IC50 [2, 7] [nM] | EC50 [3, 8] [nM] | IC50 [4, 9] [nM] | EC50 [5, 10] [µM] | Compound | MAPK signaling / pERK increase in IPC-298 (in words) ([5]; FIG. 1(B), NRAS^Q61L) | EC50 [3, 11] [nM] | EC50 [5, 12] [µM] | IC50 [1] [nM] | IC50 ([2]; COLO 205, 72 h, Table 4, colorectal adenocarcinoma, BRAF V600E/WT, RAS WT, 3 days, read-out: Growth IC50 Colo205) [nM] | IC50 ([4]; A-375, 72 h, Table 4, melanoma, BRAF V600E, RAS WT, 3 days, read-out: Growth IC50 A375) [nM]
1 | 3.5 | 160 | > 200000 | 170 | > 200 | CCN(C)S(=O)(=O)Nc1ccc(F)c(C(=O)c2c[nH]c3ncc(-c4cnc(C5CC5)nc4)cc23)c1F [Formula II, 5-(2-cyclopropylpyrimidin-5-yl)-3-[3-[[ethyl(methyl)sulfamoyl]amino]-2,6-difluoro-benzoyl]-1H-pyrrolo[2,3-b]pyridine] | negligible pERK increase | – | – | – | – | –
2 | 32 | 250 | 360 | 330 | 0.54 | CCCS(=O)(=O)Nc1ccc(F)c(C(=O)c2c[nH]c3ncc(-c4ccc(Cl)cc4)cc23)c1F [Vemurafenib, vemurafenib, reference compound] | – | 560 | 0.84 | – | – | –

Row | Compound | IC50 [1, 6] [nM] | IC50 [2, 7] [nM] | EC50 [3, 8] [nM] | IC50 [4, 9] [nM] | EC50 [5, 10] [µM] | MAPK signaling / pERK increase in IPC-298 (in words) ([5]; FIG. 1(B), NRAS^Q61L) | EC50 [3, 11] [nM] | EC50 [5, 12] [µM] | IC50 [1] [nM] | IC50 ([2]; COLO 205, 72 h, Table 4, colorectal adenocarcinoma, BRAF V600E/WT, RAS WT, 3 days, read-out: Growth IC50 Colo205) [nM] | IC50 ([4]; A-375, 72 h, Table 4, melanoma, BRAF V600E, RAS WT, 3 days, read-out: Growth IC50 A375) [nM]
3 | O=C(c1c(F)ccc(NS(=O)(=O)N2CC[C@@H](F)C2)c1F)c1c[nH]c2ncc(-c3cnc(C4CC4)nc3)cc12 [Formula I, (3R)—N-[3-[5-(2-cyclopropylpyrimidin-5-yl)-1H-pyrrolo[2,3-b]pyridine-3-carbonyl]-2,4-difluorophenyl]-3-fluoropyrrolidine-1-sulfonamide] | – | – | > 200000 | – | > 200 | – | ≥ 10000 | 10 | 16 | 10 | 50
